Measured values: PubChem BioAssay AID1259426 (Fisher Drug Discovery Resource Center, 2018)
“And” between values parts separate entries of the source, which are not always exact repeats. Equal values may be shown once. The source made the active and inactive calls.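 How the source made its calls: active means EC50 under a set limit in control cells lacking the mosquito receptor, marking a fluorescence artifact; inactive means the rest.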

Target: HEK293 Galpha15/GCaMP6s without NPYLR7, calcium fluorescence
Experiment: nonspecific activation in parental Galpha15/GCaMP6s cells – cell-based, HEK293 lacking NPYLR7, counter-screen for mosquito NPYLR7 agonist project, dose response (AID 1259426);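 further: potency for a rise in fluorescence over baseline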

Row | SMILES | EC50
1 | COc1cc(C=C(C#N)S(=O)(=O)c2ccc(Cl)cc2)cc(Cl)c1O | > 20 µM (inactive)
2 | CC(C)N=c1c([N+](=O)[O-])nn(-c2ccc(Cl)cc2)n1O | > 20 µM (inactive)
3 | COc1cc(C=C2N=C(c3ccc4c(c3)OCO4)OC2=O)cc2c1OCCO2 | > 20 µM (inactive)
4 | CCN1CCc2c(sc(NC(=O)c3ccccc3)c2-c2nc3ccccc3s2)C1 | > 20 µM (inactive)
5 | FC(F)(F)c1ccc(-c2nc3ccc(Cl)cn3c2NCc2ccccc2)cc1 | > 20 µM (inactive)
6 | O=C1c2ccccc2-c2nn(CN3CCN(c4ccccc4)CC3)c3cccc1c23 | > 20 µM (inactive)
7 | CCN=c1cc2oc3cc(NCC)c(C)cc3c(-c3ccccc3C(=O)OCC)c-2cc1C | 0.0953 µM
8 | O=C1/C(=C/c2ccc3c(c2)OCO3)Oc2c1ccc1c2CN(CC2CCCO2)CO1 (stereo not drawn) | 8.39 µM
9 | COCCOc1ccc(NC(=O)N(C)C(C)C2(C)CC2)cn1 (stereo not drawn) | > 20 µM (inactive)
10 | CC(=O)Nc1nc(COC(=O)c2[nH]c(C)c(C(=O)OC(C)C)c2C)cs1 | > 20 µM (inactive)
11 | O=C1/C(=C/c2cccc(F)c2)Oc2c1ccc(O)c2CN1CCN(CCO)CC1 | 13.9 µM
12 | CC(C)N1CCc2c(sc(NC(=O)C3CC3)c2-c2nc3ccccc3s2)C1 | 4.79 µM
13 | CC1=NCCc2c1[nH]c1cc(O)ccc21 | 0.419 µM
14 | COc1cc(OC)cc(C(=O)N2CCN(C(C(=O)Nc3ccc(NC(C)=O)cc3)C3CCCC3)CC2)c1 (stereo not drawn) | > 20 µM (inactive)
15 | O=[N+]([O-])c1c[n+]([O-])n(-c2cccc(Cl)c2)n1 | > 20 µM (inactive)
16 | O=C(Nc1cccc(-c2nnco2)c1)C1CCCCC1 | > 20 µM (inactive)
17 | COc1ccc(Cl)cc1Nc1nnc(-c2cc3c(ccc4ccccc43)oc2=O)s1 | > 20 µM (inactive)
18 | Cc1cc(O)c(CN2CCN(CCO)CC2)c2c1C(=O)/C(=C/c1cc3ccccc3o1)O2 | 7.38 µM
19 | O=C(c1cnn(-c2ccccc2)n1)N1CCCC(COCc2ccccc2)C1 (stereo not drawn) | 0.513 µM
20 | CCOC(=O)C1CCCN(CC(=O)N2N=C(c3ccccc3Cl)CC2c2ccc(Cl)cc2)C1 (stereo not drawn) | > 20 µM (inactive)
21 | CCOC(=O)c1c(-c2ccccc2)csc1N=Cc1nc(-c2ccccc2)oc1O | > 20 µM (inactive)
22 | CC(C)NC[C@H](O)c1ccc(O)c(O)c1 | < 0.039 µM
23 | N#Cc1c(N)nc2c(c1N)C(Sc1ccccc1)c1ccc(O)cc1O2 (stereo not drawn) | < 0.039 µM
24 | COc1ccc(CCN2COc3ccc4c(c3C2)O/C(=C\c2ccncc2)C4=O)cc1OC | 14.8 µM
25 | CC[C@@]1(O)C(=O)OCc2c1cc1n(c2=O)Cc2cc3c(CN(C)C)c(O)ccc3nc2-1 | 0.188 µM and 1.35 µM

Row | SMILES | EC50
26 | COc1cccc(-n2c(O)c(C=Nc3cc(OC)ccc3OC)c3ccccc3c2=O)c1 | > 20 µM (inactive)
27 | N#CC(C#N)=C1C=C2C=C(N3CCCCCC3)CCC2CC1 (stereo not drawn) | < 0.039 µM
28 | NS(=O)(=O)c1ccc(NC(NC(=O)c2ccco2)C(=O)c2ccc(Cl)cc2)cc1 (stereo not drawn) | > 20 µM (inactive)
29 | CN=c1nc(-c2ccccc2)n(-c2ccccc2)s1 | > 20 µM (inactive)
30 | O=[N+]([O-])c1cc(S(=O)(=O)Nc2cc(Cl)ccc2F)ccc1F | > 20 µM (inactive)
31 | CCc1nc(N=C(N)N)nc2cc(C)ccc12 | > 20 µM (inactive)
32 | Cc1ccc(NC2C=CS(=O)(=O)C2)cc1C (stereo not drawn) | > 20 µM (inactive)
33 | CCC(C)[n+]1c(C)cc(C=C2Sc3ccccc3N2C)cc1C (stereo not drawn) | 7.94 µM
34 | Cn1c(/C(C#N)=C/c2ccc(N3CCOCC3)o2)nc2ccccc21 | > 20 µM (inactive)
35 | COc1ccc(C(C)NS(=O)(=O)c2ccc(Cl)cc2C(F)(F)F)cc1F (stereo not drawn) | 15.3 µM
36 | COc1cc(/C=C2\C(=N)N3N=CSC3=NC2=O)cc(Br)c1OC(=O)c1ccco1 | 10 µM
37 | O=C1c2cccc3c(NCCO)ccc(c23)C(=O)N1CCO | 0.0846 µM
38 | O=C(O)c1[nH]ncc1CN1CCc2onc(-c3ccc(C(F)(F)F)cc3)c2C1 | > 20 µM (inactive)
39 | COc1ccc(-n2ccnc2-c2nc(-c3cccs3)oc2C)cn1 | > 20 µM (inactive)
40 | COc1ccc(NC(=O)CN2C(=O)c3ccccc3NC23CCN(C)CC3)cn1 | > 20 µM (inactive)
41 | COc1cc(/C=C(/C#N)c2nc3cc(Cl)ccc3s2)ccc1O | > 20 µM (inactive)
42 | CCCn1c2c(c(=O)n(C)c1=O)C(=O)C(=Cc1ccc(N(C)C)cc1)N2 | 2.17 µM
43 | CCN1C(=Cc2cc(C)[n+](CC3CCCO3)c(C)c2)Sc2ccccc21 (stereo not drawn) | > 20 µM (inactive)
44 | CN1C=CC(=C/C=C2/C=Nc3ccccc32)C=C1 | 9.41 µM
45 | Cc1ccc(-c2nc3nc(N)n(C)c(=O)c3[nH]c2=O)cc1 | > 20 µM (inactive)
46 | NC(=NCCCCCCN=C(N)N=C(N)Nc1ccc(Cl)cc1)N=C(N)Nc1ccc(Cl)cc1 | > 20 µM (inactive)
47 | CC(=O)Nc1sc2c(c1-c1nc3ccccc3s1)CCN(Cc1ccccc1)C2 | 3.18 µM
48 | CCOC(=O)C1CCCN(c2nc3nonc3nc2N2CCSCC2)C1 (stereo not drawn) | > 20 µM (inactive)
49 | C[C@@H](NC(=O)CN1Cc2ccc(N3CCOCC3)nc2C1=O)c1ccccc1 | > 20 µM (inactive)
50 | CCCC(C(=O)O)N1C(=O)/C(=C/c2ccc(O)cc2)SC1=S (stereo not drawn) | 8.28 µM

Row | SMILES | EC50
51 | O=C1/C(=C/c2cccc(Cl)c2)Oc2c1ccc(O)c2CN1CCN(CCO)CC1 | 11.8 µM
52 | O=C(O)c1csc(CSc2nnc(-c3ccncc3)n2-c2cccc(C(F)(F)F)c2)n1 | > 20 µM (inactive)
53 | COc1ccc(C(=O)N(Cc2ccccc2)C2CCC(NC(=O)C3CCN(C(=O)c4ccccc4Cl)CC3)CC2)cc1 (stereo not drawn) | > 20 µM (inactive)
54 | CN(Cc1ccccc1)C1=CC2=CC(=C(C#N)C#N)CCC2CC1 (stereo not drawn) | > 20 µM (inactive)
55 | O=C1/C(=C/c2cc3cc(Br)ccc3o2)Oc2c1ccc(O)c2CN1CCN(CCO)CC1 | 6.64 µM
56 | N#C/C(=C\c1ccc(O)c(O)c1)C(=O)NCCCc1ccccc1 | > 20 µM (inactive)
57 | Nc1nc(Cl)nc2c1ncn2[C@@H]1O[C@H](CO)[C@H](O)C1O (stereo partly drawn) | 1.42 µM
58 | CCOc1cc(/C=C2/Oc3cc(O)ccc3C2=O)cc(Cl)c1OCC(=O)N(C)C | > 20 µM (inactive)
59 | CCNC(=O)[C@H]1O[C@@H](n2cnc3c(N)ncnc32)C(O)[C@H]1O (stereo partly drawn) | < 0.039 µM
60 | COc1cc(/C=C/c2nc3ccccc3o2)cc(Cl)c1O | 1.7 µM
61 | N#CC1C(=N)SC(=N)C(C#N)C1c1cccc(O)c1 (stereo not drawn) | 10.1 µM
62 | C[C@H](O)C(=O)C1=Nc2c(nc(N)[nH]c2=O)NC1 | > 20 µM (inactive)
63 | COc1cc(C=C2SC(=S)NC2=O)cc(Br)c1O | > 20 µM (inactive)
64 | N#C/C(=C/c1ccc(N2CCCCC2)o1)c1cccc(F)c1 | > 20 µM (inactive)
65 | N#CC(=Cc1c(F)c(F)c(F)c(F)c1F)c1ccccn1 | > 20 µM (inactive)
66 | CCOc1cc(C=O)c(O)c(C=O)c1 | 0.893 µM
67 | O=C1NC(=O)C2=Cc3ccc(O)cc3OC2(O)N1 (stereo not drawn) | 0.247 µM
68 | COc1ccc(OC)c(CCNc2nc3cnc(-c4cccc5ccccc45)cc3n2C)c1 | > 20 µM (inactive)
69 | CCC1CN(C(=O)c2cc(C(C)C)on2)CCC(=O)N1Cc1ccccc1 (stereo not drawn) | > 20 µM (inactive)
70 | Cc1ccc(CNC(=O)NC(c2ccc3c(c2)OCCCO3)C(C)C)cc1F (stereo not drawn) | > 20 µM (inactive)
71 | CN(C)/C=C1\C(=O)N(c2c(Cl)cccc2Cl)c2cc(C=C(C#N)C#N)ccc21 | 18.4 µM
72 | CCCc1[nH]n(-c2ccc(Cl)cc2)c(=O)c1/C=C1\NC(=O)N(Cc2ccc(C)cc2)C1=O | > 20 µM (inactive)
73 | CC(C)C(C(=O)O)N1C(=O)/C(=C/c2ccc(O)cc2)SC1=S (stereo not drawn) | 8.26 µM
